Experimental data taken from patent US11840686B2, “Modulation of prekallikrein (PKK) expression” (Ionis Pharmaceuticals, Inc., priority 2013, dated 2023).
Strand notation (5' to 3'): a small letter for the sugar, then the base; units joined by * are phosphorothioate-linked, units joined directly phosphodiester-linked; [ ] holds rarer units or linkages, { } end groups; capitals alone tell only the bases. e = 2'-O-(2-methoxyethyl) (MOE); [5mC] = 5-methylcytosine; d = 2'-deoxy (DNA)

The substances below were run on human PKK mRNA (assay: Antisense inhibition of human PKK mRNA in HepaRG cells, 3,000 nM (Example 1)). Conditions: Table 1; PKK mRNA, HepaRG cells, 3,000 nM, electroporation, ~24 h, relative to untreated control cells.
Format: cell-based
Procedure: Antisense oligonucleotides were designed targeting a PKK nucleic acid and were tested for their effects on PKK mRNA in vitro. HepaRG™ cells, which are terminally differentiated hepatic cells derived from a human hepatic progenitor cell line and retain many characteristics of primary human hepatocytes (Lubberstedt M. et al., J. Pharmacol. Toxicol. Methods 2011 63: 59-68), were used in the screen.
The chimeric antisense oligonucleotides in the tables below were designed as 5-10-5 MOE gapmers. The gapmers are 20 nucleosides in length, wherein the central gap segment comprises of ten 2′-deoxynucleosides and is flanked by wing segments on the 5′ direction and the 3′ direction comprising five nucleosides each. Each nucleoside in the 5′ wing segment and each nucleoside in the 3′ wing segment has a 2′-O-methoxyethyl modification. The internucleoside linkages throughout each gapmer are phosphorothioate linkages. All cytosine residues throughout each gapmer are 5-methylcytosines. “Start site” indicates the 5′-most nucleoside to which the gapmer is targeted in the human gene sequence. “Stop site” indicates the 3′-most nucleoside to which the gapmer is targeted in the human gene sequence.
Cultured HepaRG™ cells at a density of 20,000 cells per well were transfected using electroporation with 3,000 nM antisense oligonucleotide. After a treatment period of approximately 24 hours, RNA was isolated from the cells and PKK mRNA levels were measured by quantitative real-time PCR. Human primer probe set RTS3454 (forward sequence […], designated herein as SEQ ID NO: 20; reverse sequence […], designated herein as SEQ ID NO: 21; probe sequence […], designated herein as SEQ ID NO: 22) was used to measure mRNA levels. PKK mRNA levels were adjusted according to total RNA content, as measured by RIBOGREEN®. The antisense oligonucleotides were tested in a series of experiments that had similar culture conditions. Results are presented as percent inhibition of PKK, relative to untreated control cells.

Row | Substance | % inhibition [%]
1 | 530983 (antisense eA*eT*eG*eG*e[5mC]*dA*dG*dG*dG*dT*dT*d[5mC]*dA*dG*dG*eT*eA*eA*eA*eG) [compound 530983] | 9
2 | 530984 (antisense eT*eT*eA*eG*eA*dA*dT*dG*dG*d[5mC]*dA*dG*dG*dG*dT*eT*e[5mC]*eA*eG*eG) [compound 530984] | 25
3 | 530985 (antisense eA*eA*eA*eT*eT*dT*dT*dA*dG*dA*dA*dT*dG*dG*d[5mC]*eA*eG*eG*eG*eT) [compound 530985] | 32
4 | 530986 (e[5mC]*eG*eG*eG*eT*dA*dA*dA*dT*dT*dT*dT*dA*dG*dA*eA*eT*eG*eG*e[5mC]; antisense) [compound 530986] | 62
5 | 530987 (eA*e[5mC]*eT*e[5mC]*e[5mC]*d[5mC]*dG*dG*dG*dT*dA*dA*dA*dT*dT*eT*eT*eA*eG*eA; antisense) [compound 530987] | 0
6 | 530989 (eT*e[5mC]*eT*e[5mC]*e[5mC]*dT*d[5mC]*d[5mC]*dA*dA*dA*dG*dT*d[5mC]*dA*eA*e[5mC]*eT*e[5mC]*e[5mC]; antisense) [compound 530989] | 28
7 | 530990 (eA*eT*eT*e[5mC]*eT*dT*d[5mC]*dT*d[5mC]*d[5mC]*dT*d[5mC]*d[5mC]*dA*dA*eA*eG*eT*e[5mC]*eA; antisense) [compound 530990] | 32
8 | 530991 (eA*eT*eT*e[5mC]*eA*dA*dT*dT*d[5mC]*dT*dT*d[5mC]*dT*d[5mC]*d[5mC]*eT*e[5mC]*e[5mC]*eA*eA; antisense) [compound 530991] | 43
9 | 530993 (e[5mC]*eA*eA*eA*e[5mC]*dA*dT*dT*d[5mC]*dA*d[5mC]*dT*d[5mC]*d[5mC]*dT*eT*eT*eA*eA*e[5mC]; antisense) [compound 530993] | 30
10 | 530994 (e[5mC]*eT*eT*eG*eG*d[5mC]*dA*dA*dA*d[5mC]*dA*dT*dT*d[5mC]*dA*e[5mC]*eT*e[5mC]*e[5mC]*eT; antisense) [compound 530994] | 50
11 | 530995 (eA*eG*eT*e[5mC]*eT*d[5mC]*dT*dT*dG*dG*d[5mC]*dA*dA*dA*d[5mC]*eA*eT*eT*e[5mC]*eA; antisense) [compound 530995] | 49
12 | 530996 (eT*eG*eA*e[5mC]*eA*dG*d[5mC]*dG*dA*dA*dT*d[5mC]*dA*dT*d[5mC]*eT*eT*eT*eG*eT; antisense) [compound 530996] | 51
13 | 530997 (eA*eA*eA*eA*e[5mC]*dT*dG*dA*d[5mC]*dA*dG*d[5mC]*dG*dA*dA*eT*e[5mC]*eA*eT*e[5mC]; antisense) [compound 530997] | 39
14 | 530998 (eA*eG*eT*eG*eA*dA*dA*dA*dA*d[5mC]*dT*dG*dA*d[5mC]*dA*eG*e[5mC]*eG*eA*eA; antisense) [compound 530998] | 0
15 | 530999 (e[5mC]*eA*eG*eT*e[5mC]*dT*dT*d[5mC]*dT*dG*dG*dG*dA*dG*dT*eA*eA*eA*eG*eA; antisense) [compound 530999] | 31
16 | 531000 (eA*eA*eG*eA*eA*dA*d[5mC]*dA*d[5mC]*dT*dT*dA*d[5mC]*dA*d[5mC]*eT*eT*e[5mC]*eT*e[5mC]; antisense) [compound 531000] | 1
17 | 531001 (eA*eG*eA*eT*eA*dA*dT*d[5mC]*dT*dT*dA*dA*dG*dA*dA*eA*e[5mC]*eA*e[5mC]*eT; antisense) [compound 531001] | 44
18 | 531003 (eA*eA*e[5mC]*e[5mC]*eA*dG*dA*dG*d[5mC]*dT*d[5mC]*d[5mC]*d[5mC]*dT*dT*eG*eT*eG*eT*e[5mC]; antisense) [compound 531003] | 49
19 | 531006 (eG*e[5mC]*eT*eT*eG*dT*dT*dT*dT*dT*dG*dT*dT*dG*dT*eG*e[5mC]*eA*eG*eA; antisense) [compound 531006] | 49

Same assay, conditions: Table 2; PKK mRNA, HepaRG cells, 3,000 nM, electroporation, ~24 h, relative to untreated control cells

Row | Substance | % inhibition [%]
20 | 531007 (eA*eA*e[5mC]*eA*e[5mC]*dA*dA*dT*dT*dG*d[5mC]*dT*dT*d[5mC]*dT*eT*eG*eG*eA*eG; antisense) [compound 531007] | 51
21 | 531008 (eT*eG*e[5mC]*eT*eG*dG*dA*dA*dG*dA*dT*dG*dT*dT*d[5mC]*eA*eT*eG*eT*eG; antisense) [compound 531008] | 51
22 | 531009 (eT*eT*eT*eG*eT*dT*d[5mC]*d[5mC]*dT*d[5mC]*d[5mC]*dA*dA*d[5mC]*dA*eA*eT*eG*e[5mC]*eG; antisense) [compound 531009] | 65
23 | 531010 (eA*eA*eG*eA*eG*dT*dT*dT*dG*dT*dT*d[5mC]*d[5mC]*dT*d[5mC]*e[5mC]*eA*eA*e[5mC]*eA; antisense) [compound 531010] | 52
24 | 531011 (e[5mC]*e[5mC]*eA*eA*eG*dA*dA*dG*dA*dG*dT*dT*dT*dG*dT*eT*e[5mC]*e[5mC]*eT*e[5mC]; antisense) [compound 531011] | 0
25 | 531012 (eT*e[5mC]*eT*e[5mC]*e[5mC]*d[5mC]*d[5mC]*dA*dA*dG*dA*dA*dG*dA*dG*eT*eT*eT*eG*eT; antisense) [compound 531012] | 48
26 | 531013 (e[5mC]*e[5mC]*eA*eG*eG*dG*d[5mC]*d[5mC]*dA*d[5mC]*dT*d[5mC]*dT*d[5mC]*d[5mC]*e[5mC]*e[5mC]*eA*eA*eG; antisense) [compound 531013] | 56
27 | 531014 (eA*eG*e[5mC]*eT*eT*d[5mC]*dA*d[5mC]*d[5mC]*dT*dG*d[5mC]*dA*dG*dG*e[5mC]*eT*e[5mC]*eA*e[5mC]; antisense) [compound 531014] | 0
28 | 531015 (eT*eA*eT*eG*eA*dG*dT*dG*dA*d[5mC]*d[5mC]*d[5mC]*dT*d[5mC]*d[5mC]*eA*e[5mC]*eA*e[5mC]*eA; antisense) [compound 531015] | 52
29 | 531016 (eT*eG*eT*e[5mC]*e[5mC]*dT*dA*dT*dG*dA*dG*dT*dG*dA*d[5mC]*e[5mC]*e[5mC]*eT*e[5mC]*e[5mC]; antisense) [compound 531016] | 39
30 | 531017 (eA*e[5mC]*eT*eG*eG*dT*dG*dT*d[5mC]*d[5mC]*dT*dA*dT*dG*dA*eG*eT*eG*eA*e[5mC]; antisense) [compound 531017] | 31
31 | 531018 (eG*eA*e[5mC]*e[5mC]*e[5mC]*dA*d[5mC]*dT*dG*dG*dT*dG*dT*d[5mC]*d[5mC]*eT*eA*eT*eG*eA; antisense) [compound 531018] | 54
32 | 531019 (eG*eT*eG*eA*eG*dG*dA*d[5mC]*d[5mC]*d[5mC]*dA*d[5mC]*dT*dG*dG*eT*eG*eT*e[5mC]*e[5mC]; antisense) [compound 531019] | 28
33 | 531020 (eA*eA*eG*e[5mC]*e[5mC]*d[5mC]*dA*dT*d[5mC]*dA*dA*dA*dG*d[5mC]*dA*eG*eT*eG*eG*eG; antisense) [compound 531020] | 0
34 | 531021 (eG*eT*e[5mC]*eT*eG*dA*d[5mC]*dA*dG*dA*dT*dT*dT*dA*dA*eA*eA*eT*eG*e[5mC]; antisense) [compound 531021] | 50
35 | 531023 (e[5mC]*eT*eT*eT*eT*dG*dT*dA*dA*dT*dG*dT*d[5mC]*dT*dG*eA*e[5mC]*eA*eG*eA; antisense) [compound 531023] | 71
36 | 531024 (eT*eT*eT*eA*eT*dT*dT*dG*dT*dG*dA*dG*dA*dA*dA*eG*eG*eT*eG*eT; antisense) [compound 531024] | 69
37 | 531025 (eT*e[5mC]*eT*e[5mC]*eT*dT*dT*dT*dA*dT*dT*dT*dG*dT*dG*eA*eG*eA*eA*eA; antisense) [compound 531025] | 34
38 | 531027 (antisense eA*eA*eA*eG*eG*dA*dG*d[5mC]*d[5mC]*dT*dG*dG*dA*dG*dT*eT*eT*eT*eA*eT) [compound 531027] | 0
39 | 531028 (antisense eA*eA*eT*eT*e[5mC]*dA*dA*dA*dG*dG*dA*dG*d[5mC]*d[5mC]*dT*eG*eG*eA*eG*eT) [compound 531028] | 56
40 | 531029 (antisense eA*eG*eT*eG*eT*dA*dA*dT*dT*d[5mC]*dA*dA*dA*dG*dG*eA*eG*e[5mC]*e[5mC]*eT) [compound 531029] | 59
41 | 531030 (antisense eA*eA*eT*eT*e[5mC]*dA*dG*dT*dG*dT*dA*dA*dT*dT*d[5mC]*eA*eA*eA*eG*eG) [compound 531030] | 24
42 | 531031 (antisense eT*eT*eT*eG*eG*dA*dA*dT*dT*d[5mC]*dA*dG*dT*dG*dT*eA*eA*eT*eT*e[5mC]) [compound 531031] | 59
43 | 531032 (antisense eT*eG*eG*eT*eT*dT*dT*dT*dG*dG*dA*dA*dT*dT*d[5mC]*eA*eG*eT*eG*eT) [compound 531032] | 67
44 | 531033 (antisense eA*eT*eT*eG*eG*dT*dT*dT*dT*dT*dG*dG*dA*dA*dT*eT*e[5mC]*eA*eG*eT) [compound 531033] | 53
